Key:
Format in all cases: cell-based
[1] = biological target: T1, EGFR exon 20 FQEA Ins A763_V764 (Ba/F3 cells) (Homo sapiens, UniProt P00533, INS763FQEA); experiment: Inhibitor activity on EGFR-dependent cell growth (CellTiter-Glo, 72 h), Ba/F3 EGFR exon 20 FQEA Ins; details: read-out: BaF3 FQEA IC50
T1 construct: expressed in transfected cells; host or cells: Ba/F3 (murine pro-B cells), retroviral transduction, puromycin selection, IL3-independent pool
Text: (§1) Example A. Inhibitor Activity on EGFR-Dependent Cell Growth
(§2) Cell lines are generated by transducing Ba/F3 cells with retroviruses containing vectors with EGFR WT, EGFR L858R, EGFR exon 19del, EGFR L858R/C797S, EGFR exon 20 NPG Ins D770_N771, EGFR exon 20 ASV Ins V769_D770, EGFR exon 20 SVD Ins D770_N771, or EGFR exon 20 FQEA Ins A763_V764 genes and a puromycin selection marker. Transduced cells are selected with puromycin for 7 days and are then be transferred into culture media without Interleukin 3 (IL3). EGFR WT cells are maintained with supplemental EGF. Surviving cells are confirmed to express EGFR by Western blot and maintained as a pool. The IC50 date were included in Table 6 and Table 7.
(§3) 1.1 Cells are harvested from flask into cell culture medium and the cell number counted.
(§4) 1.2 Cells are diluted with culture medium to the desired density and 40 μL of cell suspension is added into each well of 384-well cell culture plate and the seeding density is 800 (FQEA, exon 19del), 600 (WT, NPG, L858R/C797S), or 400 (ASV, SVD, L858R) cells/well.
(§5) 2 Compound Preparation and Treatment
(§6) 2.1 Test compounds are dissolved to 10 mM in a DMSO stock solution. 45 μL of stock solution is transferred to a 384 polypropylene plate (pp-plate). Perform 3-fold, 10-point dilution via transferring 15 μL compound into 30 μL DMSO using a TECAN (EVO200) liquid handler.
(§7) 2.2 Spin plates at room temperature at 1,000 RPM for 1 minute.
(§8) 2.3 Transfer 120 nL of diluted compound from compound source plate into the cell plate.
(§9) 2.4 After compound treatment for 72 hours, perform CTG detection for compound treatment plates as described in “Detection” section.
(§10) 3.1 Plates are removed from incubators and equilibrated at room temperature for 15 minutes.
(§11) 3.2 Thaw the CellTiter Glo reagents and allow to equilibrate to room temperature before the experiment.
(§12) 3.3 Add 40 μL of CellTiter-Glo reagent into each well (at 1:1 to culture medium). Then place the plates at room temperature for 30 min followed by reading on EnVision.
(§13) 4.1 Inhibition activity is calculated following the formula below:
(§14) % Inhibition=100×(LumHC−LumSample)/(LumHC−LumLC) • where HC is obtained from cells treated with 0.1% DMSO only; and LC is obtained from culture medium only.
(§15) 4.2 2. Calculate the IC50 by fitting the Curve using Xlfit (v5.3.1.3), equation 201.
(§16) Y=Bottom+(Top−Bottom)/(1+10^((Log IC50−X)*HillSlope))

[2] = biological target: T2, EGFR exon 20 ASV Ins V769_D770 (Ba/F3 cells) (Homo sapiens, UniProt P00533, INS769ASV); experiment: Inhibitor activity on EGFR-dependent cell growth (CellTiter-Glo, 72 h), Ba/F3 EGFR exon 20 ASV Ins; details: read-out: BaF3 ASV IC50
T2 construct: expressed in transfected cells; host or cells: Ba/F3 (murine pro-B cells), retroviral transduction, puromycin selection, IL3-independent pool
T2 sequence (P00533 with tags, fused parts or gaps INS769ASV): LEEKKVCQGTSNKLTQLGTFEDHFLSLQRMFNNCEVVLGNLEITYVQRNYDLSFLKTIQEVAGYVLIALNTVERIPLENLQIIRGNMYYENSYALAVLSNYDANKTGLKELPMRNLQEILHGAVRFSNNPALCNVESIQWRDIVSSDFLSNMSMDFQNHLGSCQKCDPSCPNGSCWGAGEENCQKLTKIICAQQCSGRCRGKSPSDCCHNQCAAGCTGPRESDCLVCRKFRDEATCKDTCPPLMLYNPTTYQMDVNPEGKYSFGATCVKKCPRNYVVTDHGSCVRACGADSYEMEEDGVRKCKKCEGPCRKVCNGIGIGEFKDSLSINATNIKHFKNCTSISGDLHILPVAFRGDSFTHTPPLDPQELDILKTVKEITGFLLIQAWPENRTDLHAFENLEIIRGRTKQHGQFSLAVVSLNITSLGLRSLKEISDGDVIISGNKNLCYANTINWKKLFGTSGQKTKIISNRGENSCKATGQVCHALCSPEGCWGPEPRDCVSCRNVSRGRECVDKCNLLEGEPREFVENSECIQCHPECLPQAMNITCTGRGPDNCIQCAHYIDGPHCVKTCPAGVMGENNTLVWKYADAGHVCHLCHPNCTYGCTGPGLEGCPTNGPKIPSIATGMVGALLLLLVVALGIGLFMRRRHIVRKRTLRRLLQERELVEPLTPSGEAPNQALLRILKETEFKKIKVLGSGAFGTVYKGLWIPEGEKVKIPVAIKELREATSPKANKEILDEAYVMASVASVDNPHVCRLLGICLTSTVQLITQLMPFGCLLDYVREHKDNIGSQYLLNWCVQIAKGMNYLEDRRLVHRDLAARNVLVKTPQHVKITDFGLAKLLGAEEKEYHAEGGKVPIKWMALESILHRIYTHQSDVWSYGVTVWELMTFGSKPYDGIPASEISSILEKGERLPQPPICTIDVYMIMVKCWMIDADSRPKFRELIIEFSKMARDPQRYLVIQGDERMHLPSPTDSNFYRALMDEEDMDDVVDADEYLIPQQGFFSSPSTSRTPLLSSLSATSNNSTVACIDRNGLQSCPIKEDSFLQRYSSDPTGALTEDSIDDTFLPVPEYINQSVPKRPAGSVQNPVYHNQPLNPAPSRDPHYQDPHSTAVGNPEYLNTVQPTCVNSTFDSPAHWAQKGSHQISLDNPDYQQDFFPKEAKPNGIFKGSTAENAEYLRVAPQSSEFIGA
Text: as §1, §2, §3, §4, §5, §6, §7, §8, §9, §10, §11, §12, §13, §14, §15, §16

EGFR WT (Ba/F3 cells) = biological target: T3, EGFR WT (Ba/F3 cells) (Homo sapiens, UniProt P00533); experiment: Inhibitor activity on EGFR-dependent cell growth (CellTiter-Glo, 72 h), Ba/F3 EGFR WT; details: read-out: BaF3 WT IC50
T3 construct: expressed in transfected cells; host or cells: Ba/F3 (murine pro-B cells), retroviral transduction, puromycin selection, maintained with EGF
T3 sequence (P00533 25-1210): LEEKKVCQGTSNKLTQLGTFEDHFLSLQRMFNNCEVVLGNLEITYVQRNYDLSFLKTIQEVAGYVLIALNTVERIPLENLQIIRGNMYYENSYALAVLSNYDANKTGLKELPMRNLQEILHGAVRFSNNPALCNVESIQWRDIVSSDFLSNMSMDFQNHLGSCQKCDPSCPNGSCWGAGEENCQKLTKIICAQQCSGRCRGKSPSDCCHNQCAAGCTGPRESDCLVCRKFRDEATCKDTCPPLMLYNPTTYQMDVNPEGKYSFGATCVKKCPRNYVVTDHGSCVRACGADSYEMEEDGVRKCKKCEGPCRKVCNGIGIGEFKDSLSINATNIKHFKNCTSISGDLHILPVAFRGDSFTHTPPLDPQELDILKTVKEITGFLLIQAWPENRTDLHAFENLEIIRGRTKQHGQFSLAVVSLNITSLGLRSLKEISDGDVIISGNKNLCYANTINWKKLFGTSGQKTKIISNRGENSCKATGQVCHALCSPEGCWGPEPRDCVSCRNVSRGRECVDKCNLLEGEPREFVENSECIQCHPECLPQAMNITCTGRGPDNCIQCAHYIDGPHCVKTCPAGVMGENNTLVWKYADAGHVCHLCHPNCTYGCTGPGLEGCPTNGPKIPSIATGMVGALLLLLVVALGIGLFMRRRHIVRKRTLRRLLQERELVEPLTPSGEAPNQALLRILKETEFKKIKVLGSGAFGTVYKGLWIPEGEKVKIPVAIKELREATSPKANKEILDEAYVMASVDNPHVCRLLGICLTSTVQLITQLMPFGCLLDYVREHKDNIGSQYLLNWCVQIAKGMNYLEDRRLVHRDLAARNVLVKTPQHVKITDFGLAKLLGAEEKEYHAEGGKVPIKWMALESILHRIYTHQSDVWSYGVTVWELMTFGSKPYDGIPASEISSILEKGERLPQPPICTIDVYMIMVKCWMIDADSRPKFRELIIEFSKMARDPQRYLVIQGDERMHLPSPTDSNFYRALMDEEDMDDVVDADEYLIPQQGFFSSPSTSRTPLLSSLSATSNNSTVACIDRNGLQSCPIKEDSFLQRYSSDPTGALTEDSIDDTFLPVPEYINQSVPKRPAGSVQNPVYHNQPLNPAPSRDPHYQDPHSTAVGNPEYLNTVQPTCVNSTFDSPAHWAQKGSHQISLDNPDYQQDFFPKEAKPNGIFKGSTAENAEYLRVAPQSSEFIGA
Text: as §1, §2, §3, §4, §5, §6, §7, §8, §9, §10, §11, §12, §13, §14, §15, §16

[3] = biological target: T4, EGFR exon 20 SVD Ins D770_N771 (Ba/F3 cells) (Homo sapiens, UniProt P00533, INS770SVD); experiment: Inhibitor activity on EGFR-dependent cell growth (CellTiter-Glo, 72 h), Ba/F3 EGFR exon 20 SVD Ins; details: read-out: BaF3 SVD IC50
T4 construct: expressed in transfected cells; host or cells: Ba/F3 (murine pro-B cells), retroviral transduction, puromycin selection, IL3-independent pool
T4 sequence (P00533 with tags, fused parts or gaps INS770SVD): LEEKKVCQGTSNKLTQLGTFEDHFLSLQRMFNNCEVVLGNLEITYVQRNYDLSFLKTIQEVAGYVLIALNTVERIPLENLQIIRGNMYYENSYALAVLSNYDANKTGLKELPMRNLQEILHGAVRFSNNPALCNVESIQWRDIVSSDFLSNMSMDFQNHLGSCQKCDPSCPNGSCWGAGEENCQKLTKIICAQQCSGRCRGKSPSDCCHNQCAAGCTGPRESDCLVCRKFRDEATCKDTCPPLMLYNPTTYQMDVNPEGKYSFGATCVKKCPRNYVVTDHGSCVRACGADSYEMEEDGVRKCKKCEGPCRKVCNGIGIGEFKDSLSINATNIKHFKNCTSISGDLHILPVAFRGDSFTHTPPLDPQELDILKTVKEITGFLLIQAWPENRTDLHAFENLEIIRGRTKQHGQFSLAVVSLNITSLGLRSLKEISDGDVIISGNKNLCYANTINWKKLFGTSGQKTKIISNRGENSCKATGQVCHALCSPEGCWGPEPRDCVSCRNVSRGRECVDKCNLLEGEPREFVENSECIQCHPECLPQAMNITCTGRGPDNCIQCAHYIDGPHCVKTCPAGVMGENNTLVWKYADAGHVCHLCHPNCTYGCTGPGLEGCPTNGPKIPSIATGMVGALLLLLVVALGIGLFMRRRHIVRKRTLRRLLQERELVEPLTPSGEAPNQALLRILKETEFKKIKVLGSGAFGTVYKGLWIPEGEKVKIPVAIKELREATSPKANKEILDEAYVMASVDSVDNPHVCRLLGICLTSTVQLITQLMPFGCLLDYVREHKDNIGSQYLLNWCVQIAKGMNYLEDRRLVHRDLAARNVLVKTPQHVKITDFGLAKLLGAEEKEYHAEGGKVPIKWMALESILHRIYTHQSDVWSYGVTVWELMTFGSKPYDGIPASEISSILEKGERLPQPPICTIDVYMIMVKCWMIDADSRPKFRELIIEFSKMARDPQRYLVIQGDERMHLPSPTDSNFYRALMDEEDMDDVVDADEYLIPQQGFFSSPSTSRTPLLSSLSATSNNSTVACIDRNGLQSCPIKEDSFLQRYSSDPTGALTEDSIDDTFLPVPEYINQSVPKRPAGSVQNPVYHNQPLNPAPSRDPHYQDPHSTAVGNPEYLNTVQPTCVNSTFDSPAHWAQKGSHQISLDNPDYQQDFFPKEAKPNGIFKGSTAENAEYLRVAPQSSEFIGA
Text: as §1, §2, §3, §4, §5, §6, §7, §8, §9, §10, §11, §12, §13, §14, §15, §16

T1 sequence (P00533 with tags, fused parts or gaps INS763FQEA): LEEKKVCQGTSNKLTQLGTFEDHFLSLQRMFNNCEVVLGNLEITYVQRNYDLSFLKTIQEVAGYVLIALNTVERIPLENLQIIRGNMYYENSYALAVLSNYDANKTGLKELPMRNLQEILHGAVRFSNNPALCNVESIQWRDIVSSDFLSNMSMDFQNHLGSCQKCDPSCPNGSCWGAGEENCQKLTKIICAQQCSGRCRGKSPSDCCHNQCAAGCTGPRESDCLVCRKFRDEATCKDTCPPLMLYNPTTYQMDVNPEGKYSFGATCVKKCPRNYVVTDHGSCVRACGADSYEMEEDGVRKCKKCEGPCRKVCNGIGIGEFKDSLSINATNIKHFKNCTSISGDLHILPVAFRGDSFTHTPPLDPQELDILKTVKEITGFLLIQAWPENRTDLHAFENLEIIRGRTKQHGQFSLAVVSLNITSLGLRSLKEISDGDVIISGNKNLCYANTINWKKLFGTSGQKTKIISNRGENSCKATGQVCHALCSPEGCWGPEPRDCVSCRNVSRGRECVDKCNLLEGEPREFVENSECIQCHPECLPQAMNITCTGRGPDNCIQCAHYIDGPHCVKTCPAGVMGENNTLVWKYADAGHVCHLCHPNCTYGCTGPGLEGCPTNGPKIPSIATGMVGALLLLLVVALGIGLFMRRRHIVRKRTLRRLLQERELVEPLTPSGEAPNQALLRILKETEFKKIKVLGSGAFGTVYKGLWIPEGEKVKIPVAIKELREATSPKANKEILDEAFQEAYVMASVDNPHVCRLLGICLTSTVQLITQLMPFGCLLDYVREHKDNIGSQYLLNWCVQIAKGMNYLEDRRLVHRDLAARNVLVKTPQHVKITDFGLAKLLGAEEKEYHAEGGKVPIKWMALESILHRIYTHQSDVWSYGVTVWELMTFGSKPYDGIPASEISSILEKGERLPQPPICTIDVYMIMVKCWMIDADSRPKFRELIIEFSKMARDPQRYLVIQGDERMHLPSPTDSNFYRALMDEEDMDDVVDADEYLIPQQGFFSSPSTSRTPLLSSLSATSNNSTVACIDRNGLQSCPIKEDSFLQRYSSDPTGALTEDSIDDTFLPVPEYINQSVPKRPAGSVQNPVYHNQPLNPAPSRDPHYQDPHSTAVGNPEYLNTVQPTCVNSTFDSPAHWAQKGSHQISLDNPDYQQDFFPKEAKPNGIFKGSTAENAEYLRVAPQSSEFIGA

| SMILES | IC50 [1] [µM] | IC50 [2] [µM] | IC50 (EGFR WT (Ba/F3 cells)) [µM] | IC50 [3] [µM] |
| --- | --- | --- | --- | --- |
| COc1ncc2nccc(-c3[nH]c4c(c3Nc3cccc(F)c3F)C(=O)NCC4)c2n1 [Compound 805, 3-[(2,3-difluorophenyl)amino]-2-[2-methoxypyrido[3,2-d]pyrimidin-8-yl]-1H,5H,6H,7H-pyrrolo[3,2-c]pyridin-4-one] | < 0.1 | 0.1 to 1 | 0.1 to 1 | < 0.1 |
| COc1c(Cl)cccc1Nc1c(-c2ccnc(-c3ccn(C)n3)n2)[nH]c2c1C(=O)NCC2 [compound 544, 3-[(3-chloro-2-methoxyphenyl)amino]-2-[2-(1-methylpyrazol-3-yl)pyrimidin-4-yl]-1H,5H,6H,7H-pyrrolo[3,2-c]pyridin-4-one] | 0.1 to 1 | 0.1 to 1 | > 1 | 0.1 to 1 |
| COc1c(Cl)cccc1Nc1c(-c2ccncc2F)[nH]c2c1C(=O)NC[C@H]2CCF [compound 812] | 0.1 to 1 | 0.1 to 1 | > 1 | 0.1 to 1 |
| COc1nc2c(-c3[nH]c4c(c3Nc3cccc(Cl)c3OC)C(=O)NCC4)ccnc2cc1F [compound 477, 3-[(3-chloro-2-methoxyphenyl)amino]-2-(7-fluoro-6-methoxy-1,5-naphthyridin-4-yl)-1H,5H,6H,7H-pyrrolo[3,2-c]pyridin-4-one] | < 0.1 | < 0.1 | 0.1 to 1 | < 0.1 |
| COc1ccc2nccc(-c3[nH]c4c(c3Nc3cccc(Cl)c3OC)C(=O)NCC43CC3)c2n1 [compound 316] | < 0.1 | < 0.1 | 0.1 to 1 | < 0.1 |
| COc1c(Cl)cccc1Nc1c(-c2ccncc2F)[nH]c2c1C(=O)NC[C@]21CCN(C)C1 [compound 815] | 0.1 to 1 | 0.1 to 1 | > 1 | 0.1 to 1 |
| COc1c(F)cccc1Nc1c(-c2ccnc3[nH]ccc23)[nH]c2c1C(=O)NCC2 [compound 252] | 0.1 to 1 | 0.1 to 1 | > 1 | 0.1 to 1 |
| COc1c(Cl)cccc1Nc1c(-c2ccncc2F)[nH]c2c1C(=O)NC[C@]21CCN(C(C)=O)C1 [compound 491] | > 1 | > 1 | > 1 | > 1 |
| COc1c(Cl)cccc1Nc1c(-c2ccnc3cnc(OCCCN4CCOCC4)nc23)[nH]c2c1C(=O)NCC2 [compound 505, 3-[(3-chloro-2-methoxyphenyl)amino]-2-{2-[3-(morpholin-4-yl)propoxy]pyrido[3,2-d]pyrimidin-8-yl}-1H,5H,6H,7H-pyrrolo[3,2-c]pyridin-4-one] | 0.1 to 1 | < 0.1 | > 1 | < 0.1 |
| COc1c(Cl)cccc1Nc1c(-c2ccnc(NC[C@H]3CCO3)n2)[nH]c2c1C(=O)NCC2 [compound 720] | > 1 | > 1 | > 1 | > 1 |
| COc1c(Cl)cccc1Nc1c(-c2ccnc(Nc3cnn(C4CCOCC4)c3)n2)[nH]c2c1C(=O)NCC2 [compound 517, 3-[(3-chloro-2-methoxyphenyl)amino]-2-(2-{[1-(oxan-4-yl)pyrazol-4-yl]amino}pyrimidin-4-yl)-1H,5H,6H,7H-pyrrolo[3,2-c]pyridin-4-one] | 0.1 to 1 | < 0.1 | 0.1 to 1 | < 0.1 |
| CCc1c(F)cccc1Nc1c(-c2ccnc3cnc(OC)nc23)[nH]c2c1C(=O)NCC2 [Compound 791, 3-[(2-ethyl-3-fluorophenyl)amino]-2-[2-methoxypyrido[3,2-d]pyrimidin-8-yl]-1H,5H,6H,7H-pyrrolo[3,2-c]pyridin-4-one] | 0.1 to 1 | < 0.1 | 0.1 to 1 | < 0.1 |
| COc1c(Cl)cccc1Nc1c(-c2ccncc2F)[nH]c2c1C(=O)NCC21CCOC1 (single isomer, unassigned) [Compound 782] | 0.1 to 1 | 0.1 to 1 | > 1 | 0.1 to 1 |
| COCC[C@@H]1CNC(=O)c2c1[nH]c(-c1ccncc1F)c2Nc1cccc(F)c1OC(F)F [Compound 470, (7R)-3-{[2-(difluoromethoxy)-3-fluorophenyl]amino}-2-(3-fluoropyridin-4-yl)-7-(2-methoxyethyl)-1H,5H,6H,7H-pyrrolo[3,2-c]pyridin-4-one] | 0.1 to 1 | < 0.1 | 0.1 to 1 | < 0.1 |
| COc1c(Cl)cccc1Nc1c(-c2ccncc2F)[nH]c2c1C(=O)NC[C@H]2CC1COC1 [468b] | 0.1 to 1 | 0.1 to 1 | > 1 | 0.1 to 1 |
| C=CC[C@H]1CNC(=O)c2c1[nH]c(-c1ccncc1F)c2Nc1cccc(Cl)c1OC [compound 811] | > 1 | > 1 | > 1 | > 1 |
| COc1c(Cl)cccc1Nc1c(-c2ccnc3ccc(OC4(C)CC4)nc23)[nH]c2c1C(=O)NC[C@@H]2C (single isomer, unassigned) [Compound 775] | < 0.1 | < 0.1 | < 0.1 | < 0.1 |
| CCc1c(Cl)cccc1Nc1c(-c2ccnc3cnc(OC)nc23)[nH]c2c1C(=O)NCC2 [Compound 800, 3-[(3-chloro-2-ethylphenyl)amino]-2-[2-methoxypyrido[3,2-d]pyrimidin-8-yl]-1H,5H,6H,7H-pyrrolo[3,2-c]pyridin-4-one] | 0.1 to 1 | < 0.1 | 0.1 to 1 | < 0.1 |
| COc1ncc2nccc(-c3[nH]c4c(c3Nc3cccc(Cl)c3OC(F)(F)F)C(=O)NCC4)c2n1 [Compound 802, 3-[[3-chloro-2-(trifluoromethoxy)phenyl]amino]-2-[2-methoxypyrido[3,2-d]pyrimidin-8-yl]-1H,5H,6H,7H-pyrrolo[3,2-c]pyridin-4-one] | > 1 | > 1 | > 1 | > 1 |
| COc1c(Cl)cccc1Nc1c(-c2ccncc2F)[nH]c2c1C(=O)NC[C@H]2CCN(C)C [compound 486, (7R)-3-[(3-chloro-2-methoxyphenyl)amino]-7-[2-(dimethylamino)ethyl]-2-(3-fluoropyridin-4-yl)-1H,5H,6H,7H-pyrrolo[3,2-c]pyridin-4-one] | > 1 | > 1 | > 1 | > 1 |
| COc1ncc2nccc(-c3[nH]c4c(c3Nc3c(F)cccc3F)C(=O)NCC4)c2n1 [Compound 806, 3-[(2,6-difluorophenyl)amino]-2-[2-methoxypyrido[3,2-d]pyrimidin-8-yl]-1H,5H,6H,7H-pyrrolo[3,2-c]pyridin-4-one] | 0.1 to 1 | > 1 | > 1 | > 1 |
| COCC[C@@H]1CNC(=O)c2c(Nc3cccc(Cl)c3OC)c(-c3ccncn3)n(C)c21 (single isomer, unassigned) [Compound 796] | > 1 | > 1 | > 1 | > 1 |
| COC[C@@H]1CNC(=O)c2c1[nH]c(-c1ccnc3ccc(OC)nc13)c2Nc1cccc(Cl)c1OC (single isomer, unassigned) [Compound 765] | < 0.1 | < 0.1 | < 0.1 | < 0.1 |
| COc1cnc2c(-c3[nH]c4c(c3Nc3cccc(Cl)c3OC)C(=O)NCC4)ccnc2c1 [compound 814] | < 0.1 | < 0.1 | < 0.1 | < 0.1 |
| COc1c(F)cccc1Nc1c(-c2nnc3ccccn23)[nH]c2c1C(=O)NCC2 [compound 239] | > 1 | > 1 | > 1 | > 1 |

Reference: patent publication US20240101576A1, “HETEROCYCLIC INHIBITORS OF EGFR AND/OR HER2, FOR USE IN THE TREATMENT OF CANCER” (Scorpion Therapeutics, Inc., priority 2020, published 2024)
